Assay results taken from patent publication US6914045B2, “Glycopeptide antibiotics” (Wyeth Holdings Corporation, priority 2001, dated 2005).
≈ marks a conversion by molar mass, not a printed value.

What was measured:
Assay in all cases: in vitro antibacterial evaluation, MIC by broth dilution
Assay type in all cases: cell-based
Enterococcus sp. = conditions: broth dilution, 18 hours at 35° C.
Method in brief: (§1)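 Broth dilution per NCCLS standard M7-A2 in Muller-Hinton II […], with an inoculum of 5×10^5 CFU/mL and antibiotic spanning 64-0.06 μg/mL. The MIC is the lowest concentration that inhibits growth of the organism.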

Escherichia coli = conditions: 18 hours at 35° C.
Method in brief: as §1

Staphylococcus sp. = conditions: broth dilution, 18 hours at 35° C.
Method in brief: as §1

Streptococcus sp. = conditions: broth dilution, 18 hours at 35° C.
Method in brief: as §1

MIC Enterococcus avium (GC 4558) (Enterococcus sp.; Enterococcus avium (GC 4558)): 32 µg/mL (≈ 23.2 µM) | MIC Enterococcus faecalis (ATCC 29212) (Enterococcus sp.; Enterococcus faecalis (ATCC 29212)): 32 µg/mL (≈ 23.2 µM) | MIC Enterococcus faecalis (GC 4553) (Enterococcus sp.; Enterococcus faecalis (GC 4553)): 32 µg/mL (≈ 23.2 µM) | MIC Enterococcus faecalis (GC 4554) (Enterococcus sp.; Enterococcus faecalis (GC 4554)): 32 µg/mL (≈ 23.2 µM) | MIC Enterococcus faecalis (GC 6189) (Enterococcus sp.; Enterococcus faecalis (GC 6189)): 32 µg/mL (≈ 23.2 µM) | MIC Enterococcus faecium (GC 2243) (Enterococcus sp.; Enterococcus faecium (GC 2243)): 32 µg/mL (≈ 23.2 µM) | MIC Enterococcus faecium (GC 4556) (Enterococcus sp.; Enterococcus faecium (GC 4556)): 32 µg/mL (≈ 23.2 µM) | MIC Enterococcus faecium (GC 4557) (Enterococcus sp.; Enterococcus faecium (GC 4557)): 8 µg/mL (≈ 5.81 µM) | MIC Enterococcus faecalis (ATCC 29212) (Enterococcus sp.; strain ATCC 29212): 32 µg/mL (≈ 23.2 µM) | MIC Enterococcus faecalis (GC 2242) (Enterococcus sp.; strain GC 2242): 32 µg/mL (≈ 23.2 µM) | MIC Enterococcus faecium (GC 2243) (Enterococcus sp.; strain GC 2243): 32 µg/mL (≈ 23.2 µM) | MIC Enterococcus faecalis (GC 2691) (Enterococcus sp.; strain GC 2691): 32 µg/mL (≈ 23.2 µM) | MIC Enterococcus faecalis (GC 3059) (Enterococcus sp.; strain GC 3059): 64 µg/mL (≈ 46.5 µM) | MIC Enterococcus faecalis (GC 4552) (Enterococcus sp.; strain GC 4552): 32 µg/mL (≈ 23.2 µM) | MIC Enterococcus faecalis (GC 4553) (Enterococcus sp.; strain GC 4553): 32 µg/mL (≈ 23.2 µM) | MIC Enterococcus faecalis (GC 4554) (Enterococcus sp.; strain GC 4554): 32 µg/mL (≈ 23.2 µM) | MIC Enterococcus faecium (GC 4556) (Enterococcus sp.; strain GC 4556): 32 µg/mL (≈ 23.2 µM) | MIC Enterococcus faecium (GC 4557) (Enterococcus sp.; strain GC 4557): 8 µg/mL (≈ 5.81 µM) | MIC Enterococcus avium (GC 4558) (Enterococcus sp.; strain GC 4558): 32 µg/mL (≈ 23.2 µM) | MIC Enterococcus faecalis (GC 6189) (Enterococcus sp.; strain GC 6189): 32 µg/mL (≈ 23.2 µM) | MIC Escherichia coli (ATCC 25922) (Escherichia coli; Escherichia coli (ATCC 25922)): >64 µg/mL | MIC Escherichia coli (GC 4559) (Escherichia coli; Escherichia coli (GC 4559)): >64 µg/mL | MIC Escherichia coli (GC 4560) (Escherichia coli; Escherichia coli (GC 4560)): 4 µg/mL (≈ 2.9 µM) | MIC Coagulase Negative Staphylococcus (GC 4547) (Staphylococcus sp.): 4 µg/mL (≈ 2.9 µM) | MIC Coagulase Negative Staphylococcus (GC 4548) (Staphylococcus sp.): 4 µg/mL (≈ 2.9 µM) | MIC Coagulase Negative Staphylococcus (GC 4549) (Staphylococcus sp.): 2 µg/mL (≈ 1.45 µM) | MIC Coagulase Negative Staphylococcus (GC 4551) (Staphylococcus sp.): 8 µg/mL (≈ 5.81 µM) | MIC Coagulase Negative Staphylococcus (GC 6257) (Staphylococcus sp.): 2 µg/mL (≈ 1.45 µM) | MIC Staphylococcus aureus (ATCC 29213) (Staphylococcus sp.): 8 µg/mL (≈ 5.81 µM) | MIC Staphylococcus aureus (GC 1131) (Staphylococcus sp.): 8 µg/mL (≈ 5.81 µM) | MIC Staphylococcus aureus (GC 3051) (Staphylococcus sp.): 4 µg/mL (≈ 2.9 µM) | MIC Staphylococcus aureus (GC 3053) (Staphylococcus sp.): 8 µg/mL (≈ 5.81 µM) | MIC Staphylococcus aureus (GC 4541) (Staphylococcus sp.): 8 µg/mL (≈ 5.81 µM) | MIC Staphylococcus aureus (GC 4542) (Staphylococcus sp.): 8 µg/mL (≈ 5.81 µM) | MIC Staphylococcus aureus (GC 4544) (Staphylococcus sp.): 8 µg/mL (≈ 5.81 µM) | MIC Staphylococcus aureus (GC 4545) (Staphylococcus sp.): 4 µg/mL (≈ 2.9 µM) | MIC Staphylococcus aureus-SMITH (GC 4543) (Staphylococcus sp.): 8 µg/mL (≈ 5.81 µM) | MIC Staphylococcus aureus (ATCC 29213) (Staphylococcus sp.; strain ATCC 29213): 8 µg/mL (≈ 5.81 µM) | MIC Staphylococcus aureus (GC 1131) (Staphylococcus sp.; strain GC 1131): 8 µg/mL (≈ 5.81 µM) | MIC Staphylococcus aureus (GC 3051) (Staphylococcus sp.; strain GC 3051): 4 µg/mL (≈ 2.9 µM) | MIC Staphylococcus aureus (GC 3053) (Staphylococcus sp.; strain GC 3053): 8 µg/mL (≈ 5.81 µM) | MIC Staphylococcus aureus (GC 4541) (Staphylococcus sp.; strain GC 4541): 8 µg/mL (≈ 5.81 µM) | MIC Staphylococcus aureus (GC 4542) (Staphylococcus sp.; strain GC 4542): 8 µg/mL (≈ 5.81 µM) | MIC Staphylococcus aureus (GC 4544) (Staphylococcus sp.; strain GC 4544): 8 µg/mL (≈ 5.81 µM) | MIC Staphylococcus aureus (GC 4545) (Staphylococcus sp.; strain GC 4545): 4 µg/mL (≈ 2.9 µM) | MIC Coagulase Negative Staphylococcus (GC 4547) (Staphylococcus sp.; strain GC 4547): 4 µg/mL (≈ 2.9 µM) | MIC Coagulase Negative Staphylococcus (GC 4548) (Staphylococcus sp.; strain GC 4548): 4 µg/mL (≈ 2.9 µM) | MIC Coagulase Negative Staphylococcus (GC 4549) (Staphylococcus sp.; strain GC 4549): 2 µg/mL (≈ 1.45 µM) | MIC Coagulase Negative Staphylococcus (GC 4551) (Staphylococcus sp.; strain GC 4551): 8 µg/mL (≈ 5.81 µM) | MIC Coagulase Negative Staphylococcus (GC 6257) (Staphylococcus sp.; strain GC 6257): 2 µg/mL (≈ 1.45 µM) | MIC Staphylococcus aureus-SMITH (GC 4543) (Staphylococcus sp.; strain SMITH GC 4543): 8 µg/mL (≈ 5.81 µM) | MIC Streptococcus pneumoniae (ATCC 6301) (Streptococcus sp.; strain ATCC 6301): 1 µg/mL (≈ 0.726 µM) | MIC Streptococcus pneumoniae (GC 1894) (Streptococcus sp.; strain GC 1894): 1 µg/mL (≈ 0.726 µM) | MIC Streptococcus pyogenes (GC 4563) (Streptococcus sp.; strain GC 4563): 2 µg/mL (≈ 1.45 µM) | MIC Streptococcus agalactiae (GC 4564) (Streptococcus sp.; strain GC 4564): 4 µg/mL (≈ 2.9 µM) | MIC Streptococcus pneumoniae (GC 4565) (Streptococcus sp.; strain GC 4565): 2 µg/mL (≈ 1.45 µM)
SMILES: CC=C(C)C(=O)OC1C(CO)OC(OC2C(CO)OC(Oc3ccc(CC4NC(=O)C(C(C)c5ccccc5)NC(=O)CNC(=O)C(CO)NC(=O)C(C(O)C5CNC(=N)N5C5OC(CO)C(O)C(O)C5O)NC(=O)C(C(O)C5CNC(=N)N5)NC4=O)cc3)C(O)C2O)C(O)C1O (stereo not drawn) [Example 278b, Cyclo[glycyl-β-methylphenylalanyl-O-[4-O-[4-O-(2-methylbut-2-enoyl)hexopyranosyl]-hexopyranosyl]tyrosyl-3-(2-iminoimidazolidin-4-yl)seryl-3-(3-hexopyranosyl-2-imino-imidazolidin-4-yl)serylseryl]]
MIC Staphylococcus haemolyticus (GC 4546) (Staphylococcus sp.): 4 µg/mL (≈ 2.9 µM) | MIC Staphylococcus haemolyticus (GC 4546) (Staphylococcus sp.; strain GC 4546): 4 µg/mL (≈ 2.9 µM)
